# pIC50: −log10 of the molar value.
# What was measured:
# Format in all cases: cell-based
# OVCAR 3 = test: MTT cytotoxicity, OVCAR 3 cancer cell line; details: Homo sapiens; OVCAR 3 cells
# cancer cells = test: Uptake of paclitaxel encapsulated in sHDL nanoparticles by cancer cells; details: encapsulated in the delivery particles; HDL receptors; FIG. 7
# OV1063 = test: MTT cytotoxicity, OV1063 cancer cell line; details: Homo sapiens, OV-1063; OV1063 cells
# DU145 = test: MTT cytotoxicity, DU145 cancer cell line; details: Homo sapiens, DU-145; DU145 cells
smiles,measurement,setting,value
"CC(=O)O[C@H]1C(=O)[C@@]2(C)[C@H]([C@H](OC(=O)c3ccccc3)[C@]3(O)C[C@H](OC(=O)[C@H](O)[C@@H](NC(=O)c4ccccc4)c4ccccc4)C(C)=C1C3(C)C)[C@]1(OC(C)=O)CO[C@@H]1C[C@@H]2O [Ptx, paclitaxel]",pIC50,OVCAR 3,4.15
same,uptake by cancer cells,cancer cells,taken up by cancer cells via this receptor mediated mechanism
same,pIC50,OV1063,4.85
same,pIC50,DU145,4.85
